From the supplement of paper PMC10307832

What was measured:
Experiment in all cases: relative viability (nuclei count vs DMSO), 5 days (fraction); higher = more cells survive
HCC-366 = tested on: HCC-366
Outline: (§1)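 Lung cancer cell lines were seeded in 1536-well plates and dosed by pin tool the next day, with either a single drug or a fixed anchor-drug dose combined with five library-drug doses (not always all listed) spaced in √10 steps. Five days later, one step fixed the cells and stained their nuclei (final 0.05% Triton X-100, 1% formaldehyde, 1 ug/ml Hoechst), and nuclei were counted on 4× images. Relative viability is the nuclei count in treated wells divided by the count in vehicle wells, and each value is the median of duplicate plates.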

HCC-44 = tested on: HCC-44
Outline: as §1

NCI-H1623 = tested on: NCI-H1623
Outline: as §1

NCI-H522 = tested on: NCI-H522
Outline: as §1

NCI-H1437 = tested on: NCI-H1437
Outline: as §1

NCI-H1648 = tested on: NCI-H1648
Outline: as §1

| Structure (SMILES) | relative viability (HCC-366; first compound 0.01 µM) | relative viability (HCC-366; first compound 0.03162 µM) | relative viability (HCC-366; first compound 0.1 µM) | relative viability (HCC-366; first compound 0.3162 µM) | relative viability (HCC-366; first compound 1 µM) | relative viability (HCC-44; first compound 0.01 µM) | relative viability (HCC-44; first compound 0.03162 µM) | relative viability (HCC-44; first compound 0.1 µM) | relative viability (HCC-44; first compound 0.3162 µM) | relative viability (HCC-44; first compound 1 µM) | relative viability (NCI-H1623; first compound 0.01 µM) | relative viability (NCI-H1623; first compound 0.03162 µM) | relative viability (NCI-H1623; first compound 0.1 µM) | relative viability (NCI-H1623; first compound 0.3162 µM) | relative viability (NCI-H1623; first compound 1 µM) | relative viability (NCI-H522; first compound 0.01 µM) | relative viability (NCI-H522; first compound 0.03162 µM) | relative viability (NCI-H522; first compound 0.1 µM) | relative viability (NCI-H522; first compound 0.3162 µM) | relative viability (NCI-H522; first compound 1 µM) | relative viability (NCI-H1437; first compound 0.01 µM) | relative viability (NCI-H1437; first compound 0.03162 µM) | relative viability (NCI-H1437; first compound 0.1 µM) | relative viability (NCI-H1437; first compound 0.3162 µM) | relative viability (NCI-H1437; first compound 1 µM) | relative viability (NCI-H1648; first compound 0.01 µM) | relative viability (NCI-H1648; first compound 0.03162 µM) | relative viability (NCI-H1648; first compound 0.1 µM) | relative viability (NCI-H1648; first compound 0.3162 µM) | relative viability (NCI-H1648; first compound 1 µM) |
| --- | --- | --- | --- | --- | --- | --- | --- | --- | --- | --- | --- | --- | --- | --- | --- | --- | --- | --- | --- | --- | --- | --- | --- | --- | --- | --- | --- | --- | --- | --- |
| NC(=O)Nc1cc(-c2cccc(F)c2)sc1C(=O)N[C@H]1CCCNC1 [AZD7762] + COc1cccc2cc(-c3nc([C@H]4CC[C@H](C(=O)O)CC4)n4ncnc(N)c34)[nH]c12 [OSI-027] (partner 0.5 µM) | 1.02 | 0.896 | 0.985 | 0.869 | 0.122 | 0.718 | 0.579 | 0.712 | 0.65 | 0.491 | 0.44 | 0.464 | 0.414 | 0.424 | 0.378 | 0.711 | 0.683 | 0.696 | 0.755 | 0.807 | 0.888 | 0.833 | 0.974 | 0.87 | 0.695 | 0.244 | 0.257 | 0.27 | 0.253 | 0.294 |
| NC(=O)Nc1cc(-c2cccc(F)c2)sc1C(=O)N[C@H]1CCCNC1 [AZD7762] + Cc1cc(Nc2cc(N3CCN(C)CC3)nc(Sc3ccc(NC(=O)C4CC4)cc3)n2)n[nH]1 [Tozasertib] (partner 0.1 µM) | 0.144 | 0.164 | 0.125 | 0.119 | 0.0666 | 1.1 | 0.87 | 0.714 | 0.822 | 0.412 | 0.4 | 0.43 | 0.44 | 0.441 | 0.39 | 0.536 | 0.657 | 0.621 | 0.566 | 0.535 | 0.408 | 0.41 | 0.439 | 0.372 | 0.366 | 0.527 | 0.552 | 0.36 | 0.451 | 0.425 |
